# Data taken from US10913738B2 (BRISTOL-MYERS SQUIBB COMPANY, priority 2017, dated 2021).
# Like-named read-outs stand apart in the source and are kept apart here.
# Legend:
# [1] = test system: MLKL phosphorylation in HT29-L23 human colorectal adenocarcinoma cells; assay: MLKL Phosphorylation High-Content Assay; assay type: cell-based; conditions: Homo sapiens
# Method in brief: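 Cells incubated six hours at 37° C., then phospho-MLKL (S358) immunostained overnight at 4° C. and imaged by high-content microscopy. Phosphorylation quantified as mean circ-ring average intensity ratio; IC50 and Ymax from 4-parameter logistic fits.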
# [2] = target: T1, His-GST-TVMV-hRIPK1(1-324) (Homo sapiens, UniProt Q13546); assay: RIPK1 HTRF Binding Assay
# T1 construct: The coding region of human RIPK1(1-324) flanked by NdeI site at 5′ end; made in house; host or cells: Spodoptera frugiperda (Sf9) insect cells, baculovirus
# T1 sequence (Q13546 1-324): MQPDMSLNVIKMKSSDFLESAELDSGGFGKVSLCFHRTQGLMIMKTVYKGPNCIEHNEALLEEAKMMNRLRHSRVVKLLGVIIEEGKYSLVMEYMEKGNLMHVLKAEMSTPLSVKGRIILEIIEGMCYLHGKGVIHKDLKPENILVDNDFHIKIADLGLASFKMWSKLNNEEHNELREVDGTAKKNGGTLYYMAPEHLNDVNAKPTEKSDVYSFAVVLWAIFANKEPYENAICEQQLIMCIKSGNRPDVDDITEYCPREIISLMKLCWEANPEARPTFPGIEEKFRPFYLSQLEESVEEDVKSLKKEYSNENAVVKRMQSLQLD
# [3] = x marks IC50 class 20-200 nM, read-out: pMLKL cell activity 20-200 nM
# [4] = x marks IC50 class 20-200 nM, read-out: RIPK1 HTRF binding 20-200 nM
# [5] = x marks IC50 class <20 nM, read-out: RIPK1 HTRF binding <20 nM
# [6] = x marks IC50 class >200 nM, read-out: pMLKL cell activity >200 nM
# [7] = x marks IC50 class >200 nM, read-out: RIPK1 HTRF binding >200 nM
SMILES,"IC50 [1, 3]","IC50 [2, 4]","IC50 [2, 5]","IC50 [1, 6]","IC50 [2, 7]"
"Cc1cnc(C(=O)NCc2cc(OC(F)(F)F)ccc2F)cc1-c1ccn2nc(N)nc2c1 [Example 399, 4-(2-amino-[1,2,4]triazolo[1,5-a]pyridin-7-yl)-N-(2-fluoro-5-(trifluoromethoxy)benzyl)-5-methylpicolinamide]",20 to 200 nM,20 to 200 nM,–,–,–
"Cc1cnc(C(=O)NCCC(C)c2ccccc2)cc1-c1ccn2nc(N)nc2c1 (stereo not drawn) [Example 400, 4-(2-amino-[1,2,4]triazolo[1,5-a]pyridin-7-yl)-5-methyl-N-(3-phenylbutyl)picolinamide]",20 to 200 nM,–,< 20 nM,–,–
"Cc1ccc(-c2ccn3nc(N)nc3c2)nc1C(=O)NCC[C@H](O)c1ccc(Cl)cc1 [Example 401, (S)-6-(2-amino-[1,2,4]triazolo[1,5-a]pyridin-7-yl)-N-(3-(4-chlorophenyl)-3-hydroxypropyl)-3-methylpicolinamide]",20 to 200 nM,–,< 20 nM,–,–
"Cc1ccc(-c2ccn3nc(N)nc3c2)nc1C(=O)NCC[C@@H](O)c1ccc(Cl)cc1 [Example 402, (R)-6-(2-amino-[1,2,4]triazolo[1,5-a]pyridin-7-yl)-N-(3-(4-chlorophenyl)-3-hydroxypropyl)-3-methylpicolinamide]",20 to 200 nM,20 to 200 nM,–,–,–
"Cc1ccc(-c2ccn3nc(N)nc3c2)nc1C(=O)N[C@H](C)c1cc(OC(F)(F)F)ccc1F [Example 403, (R)-6-(2-amino-[1,2,4]triazolo[1,5-a]pyridin-7-yl)-N-(1-(2-fluoro-5-(trifluoromethoxy)phenyl)ethyl)-3-methylpicolinamide]",20 to 200 nM,–,< 20 nM,–,–
"Cc1ccc(-c2ccn3nc(N)nc3c2)nc1C(=O)NCCC(C)c1ccccc1 (stereo not drawn) [Example 404, 6-(2-amino-[1,2,4]triazolo[1,5-a]pyridin-7-yl)-3-methyl-N-(3-phenylbutyl)picolinamide]",20 to 200 nM,20 to 200 nM,–,–,–
"Cc1ccc(-c2ccn3nc(N)nc3c2)nc1C(=O)NCc1cc(OC(F)(F)F)ccc1F [Example 405, 6-(2-amino-[1,2,4]triazolo[1,5-a]pyridin-7-yl)-N-(2-fluoro-5-(trifluoromethoxy)benzyl)-3-methylpicolinamide]",–,20 to 200 nM,–,> 200 nM,–
"COc1ccc(-c2ccn3nc(N)nc3c2)nc1C(=O)N[C@H](C)c1cc(OC(F)(F)F)ccc1F [Example 406, (R)-6-(2-amino-[1,2,4]triazolo[1,5-a]pyridin-7-yl)-N-(1-(2-fluoro-5-(trifluoromethoxy)phenyl)ethyl)-3-methoxypicolinamide]",–,20 to 200 nM,–,> 200 nM,–
"Cc1cnc(-c2ccn3nc(N)nc3c2)nc1C(=O)N[C@H](C)c1cc(OC(F)(F)F)ccc1F [Example 407, (R)-2-(2-amino-[1,2,4]triazolo[1,5-a]pyridin-7-yl)-N-(1-(2-fluoro-5-(trifluoromethoxy)phenyl)ethyl)-5-methylpyrimidine-4-carboxamide]",20 to 200 nM,20 to 200 nM,–,–,–
"Cc1cnc(-c2ccn3nc(N)nc3c2)nc1C(=O)NCC[C@@H](O)c1ccc(Cl)cc1 [Example 408, (R)-2-(2-amino-[1,2,4]triazolo[1,5-a]pyridin-7-yl)-N-(3-(4-chlorophenyl)-3-hydroxypropyl)-5-methylpyrimidine-4-carboxamide]",20 to 200 nM,20 to 200 nM,–,–,–
"Cc1cnc(-c2ccn3nc(N)nc3c2)nc1C(=O)N[C@H](C)c1cc(C(F)(F)F)ccc1F [Example 409, (R)-2-(2-amino-[1,2,4]triazolo[1,5-a]pyridin-7-yl)-N-(1-(2-fluoro-5-(trifluoromethyl)phenyl)ethyl)-5-methylpyrimidine-4-carboxamide]",20 to 200 nM,20 to 200 nM,–,–,–
"Cc1cnc(-c2ccn3nc(N)nc3c2)nc1C(=O)NCC[C@H](O)c1ccc(Cl)cc1 [Example 410, (S)-2-(2-amino-[1,2,4]triazolo[1,5-a]pyridin-7-yl)-N-(3-(4-chlorophenyl)-3-hydroxypropyl)-5-methylpyrimidine-4-carboxamide]",20 to 200 nM,20 to 200 nM,–,–,–
"Cc1cnc(-c2ccn3nc(N)nc3c2)nc1C(=O)NCCC(C)c1ccccc1 (stereo not drawn) [Example 411, 2-(2-amino-[1,2,4]triazolo[1,5-a]pyridin-7-yl)-5-methyl-N-(3-phenylbutyl)pyrimidine-4-carboxamide]",–,20 to 200 nM,–,> 200 nM,–
"Cc1ncc(-c2ccn3nc(N)nc3c2)cc1NC(=O)c1cnn(Cc2ccccc2)c1 [Example 412, N-(5-(2-amino-[1,2,4]triazolo[1,5-a]pyridin-7-yl)-2-methylpyridin-3-yl)-1-benzyl-1H-pyrazole-4-carboxamide]",20 to 200 nM,–,< 20 nM,–,–
"COc1ncc(-c2ccn3nc(N)nc3c2)cc1NC(=O)Cc1cc(OC(F)(F)F)ccc1F [Example 414, N-(5-(2-amino-[1,2,4]triazolo[1,5-a]pyridin-7-yl)-2-methoxypyridin-3-yl)-2-(2-fluoro-5-(trifluoromethoxy)phenyl)acetamide]",20 to 200 nM,–,< 20 nM,–,–
"COc1ncc(-c2ccn3nc(N)nc3c2)cc1NC(=O)Cc1cccc(OC(F)(F)F)c1 [Example 415, N-(5-(2-amino-[1,2,4]triazolo[1,5-a]pyridin-7-yl)-2-methoxypyridin-3-yl)-2-(3-(trifluoromethoxy)phenyl)acetamide]",20 to 200 nM,20 to 200 nM,–,–,–
"COc1ncc(-c2ccn3nc(N)nc3c2)cc1NC(=O)Cc1cccc(C(F)(F)F)c1 [Example 416, N-(5-(2-amino-[1,2,4]triazolo[1,5-a]pyridin-7-yl)-2-methoxypyridin-3-yl)-2-(3-(trifluoromethyl)phenyl)acetamide]",–,20 to 200 nM,–,> 200 nM,–
"COc1ncc(-c2ccn3nc(N)nc3c2)cc1NC(=O)Cc1ccccc1OC(F)(F)F [Example 417, N-(5-(2-amino-[1,2,4]triazolo[1,5-a]pyridin-7-yl)-2-methoxypyridin-3-yl)-2-(2-(trifluoromethoxy)phenyl)acetamide]",–,20 to 200 nM,–,> 200 nM,–
"Cc1ncc(-c2ccn3nc(N)nc3c2)cc1NC(=O)c1cc(OC(F)(F)F)ccc1F [Example 419, N-(5-(2-amino-[1,2,4]triazolo[1,5-a]pyridin-7-yl)-2-methylpyridin-3-yl)-2-fluoro-5-(trifluoromethoxy)benzamide]",–,–,< 20 nM,> 200 nM,–
"Cc1ncc(-c2ccn3nc(N)nc3c2)cc1NC(=O)Cc1cc(OC(F)(F)F)ccc1F [Example 420, N-(5-(2-amino-[1,2,4]triazolo[1,5-a]pyridin-7-yl)-2-methylpyridin-3-yl)-2-(2-fluoro-5-(trifluoromethoxy)phenyl)acetamide]",20 to 200 nM,–,< 20 nM,–,–
"Cc1ncc(-c2ccn3nc(N)nc3c2)cc1C(=O)NCC(C)(O)Cc1ccc(F)cc1 (stereo not drawn) [Example 421, 5-(2-amino-[1,2,4]triazolo[1,5-a]pyridin-7-yl)-N-(3-(4-fluorophenyl)-2-hydroxy-2-methylpropyl)-2-methylnicotinamide]",–,20 to 200 nM,–,> 200 nM,–
"Cc1ncc(-c2ccn3nc(N)nc3c2)cc1C(=O)N1CCCC(C(O)c2ccc(F)cc2)C1 (stereo not drawn) [Example 423, (5-(2-amino-[1,2,4]triazolo[1,5-a]pyridin-7-yl)-2-methylpyridin-3-yl)(3-((4-fluorophenyl)(hydroxy)methyl)piperidin-1-yl)methanone]",–,–,–,> 200 nM,> 200 nM
"COc1ncc(-c2ccn3nc(N)nc3c2)cc1C(=O)N1CCCC(Sc2ccccc2)C1 (stereo not drawn) [Example 424, (5-(2-amino-[1,2,4]triazolo[1,5-a]pyridin-7-yl)-2-methoxypyridin-3-yl)(3-(phenylthio)piperidin-1-yl)methanone]",20 to 200 nM,20 to 200 nM,–,–,–
COc1ncc(-c2ccn3nc(N)nc3c2)cc1C(=O)N1CCOC(c2ccccc2)C1 (stereo not drawn) [Example 425],–,–,–,> 200 nM,> 200 nM
"COc1ncc(-c2ccn3nc(N)nc3c2)cc1C(=O)NC1CCCC(NC(=O)OC(C)(C)C)C1 (stereo not drawn) [Example 426, tert-butyl (3-(5-(2-amino-[1,2,4]triazolo[1,5-a]pyridin-7-yl)-2-methoxynicotinamido)cyclohexyl)carbamate]",–,–,–,> 200 nM,> 200 nM
"COc1ncc(-c2ccn3nc(N)nc3c2)cc1C(=O)N1CCCC(C(=O)Cc2ccccc2)C1 (stereo not drawn) [Example 427, 1-(1-(5-(2-amino-[1,2,4]triazolo[1,5-a]pyridin-7-yl)-2-methoxynicotinoyl)piperidin-3-yl)-2-phenylethan-1-one]",20 to 200 nM,20 to 200 nM,–,–,–
"COc1ncc(-c2ccn3nc(N)nc3c2)cc1C(=O)N1CCOC(Cc2ccccc2)C1 (stereo not drawn) [Example 428, (5-(2-amino-[1,2,4]triazolo[1,5-a]pyridin-7-yl)-2-methoxypyridin-3-yl)(2-benzylmorpholino)methanone]",–,20 to 200 nM,–,> 200 nM,–
